Assay [1] in a line: viability loss in HepG2 liver cells – cell-based, ATP luminescence, cherry-pick, set 6, cytotoxicity control, dose response (AID 1053125). The assay is classed as functional.
Assay [2] can be described thus: cells.
Assay [3] is described as follows: cells. As to conditions: A549.
Assay [4] in a line: cells. As to conditions: HEK293.
Assay [5] can be described thus: Luminescence Cell-Based Dose Confirmation HTS to Identify Activators of 5'UTR Stem-Loop Driven Alpha-Synuclein mRNA Translation in H4 Neuroglioblastoma Cells. [Related pubchem assays: 1829 (Project Summary), 1814 (Primary HTS)]. The assay is classed as functional.
The nature of assay [6]: viability loss in HepG2 hepatoma cells – cell-based, ATP luminescence, cherry-pick, activator set 2, cytotoxicity control, dose response (AID 1053143). The assay is classed as functional.
Another assay concerns H4. In words: Luminescence Cell-Based Dose Response HTS to Identify Activators of 5'UTR Stem-Loop Driven Prion Protein mRNA Translation in H4 Neuroglioblastoma Cells. [Related pubchem assays: 1829 (Project Summary), 1814 (Primary HTS)]. The assay is classed as functional. As to conditions: Homo sapiens.
For another assay, the system named is INS1. In words: INS-1E survival protection against cytokine death – cell-based, luminescence, retest, dose response (AID 449756).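 Further: cell death triggered by IL-1 beta plus TNF-alpha plus IFN-gamma mixture; protective hits raise ATP signal compared with cytokine alone wells.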 The assay is classed as functional. To be noted: Rattus norvegicus.
A short description of assay [7]: Luminescence Cell-Based Dose Response HTS to Identify Activators of Luciferase Translation or Activity in H4 […] Cells. [Related pubchem assays: 1829 (Project Summary), 1814 (Primary HTS)]. The assay is classed as functional.
The target in assay [8] is Beta-lactamase (Salmonella choleraesuis (strain SC-B67), UniProt Q5J463). In words: Epi-absorbance-based counterscreen for selective VIM-2 inhibitors: dose response biochemical high throughput screening assay to identify inhibitors of TEM-1 serine-beta-lactamase. For orientation: The purpose of a counterscreen is to sort out artefacts and off-target activity.
Sequence of Beta-lactamase (Salmonella choleraesuis (strain SC-B67), UniProt Q5J463) (Q5J463 whole entry): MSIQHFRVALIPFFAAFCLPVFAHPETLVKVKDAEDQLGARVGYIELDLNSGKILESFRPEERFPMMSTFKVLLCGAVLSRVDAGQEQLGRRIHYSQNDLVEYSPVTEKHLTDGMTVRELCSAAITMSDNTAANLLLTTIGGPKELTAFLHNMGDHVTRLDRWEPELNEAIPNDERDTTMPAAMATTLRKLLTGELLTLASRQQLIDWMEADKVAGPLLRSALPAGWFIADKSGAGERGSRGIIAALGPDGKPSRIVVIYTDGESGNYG
Assay [9] addresses T1, Beta-lactamase (Pseudomonas aeruginosa, UniProt Q79MP6). In words: […] counterscreen for selective VIM-2 inhibitors: dose response biochemical high throughput screening assay to identify inhibitors of IMP-1 metallo-beta-lactamase.
Assay [10] deals with T1, Beta-lactamase. Briefly: inhibition of IMP-1 beta-lactamase activity – biochemical, epi-absorbance, selectivity assay for VIM-2 inhibitor project, dose response (AID 1920).
In another assay the target is Galanin receptor type 3 (Homo sapiens, UniProt O60755). Briefly: Fluorescence-based cell-based primary high throughput dose response assay to identify antagonists of the Galanin Receptor 3 (GalR3). The assay is classed as functional.
Sequence of Galanin receptor type 3 (O60755 whole entry): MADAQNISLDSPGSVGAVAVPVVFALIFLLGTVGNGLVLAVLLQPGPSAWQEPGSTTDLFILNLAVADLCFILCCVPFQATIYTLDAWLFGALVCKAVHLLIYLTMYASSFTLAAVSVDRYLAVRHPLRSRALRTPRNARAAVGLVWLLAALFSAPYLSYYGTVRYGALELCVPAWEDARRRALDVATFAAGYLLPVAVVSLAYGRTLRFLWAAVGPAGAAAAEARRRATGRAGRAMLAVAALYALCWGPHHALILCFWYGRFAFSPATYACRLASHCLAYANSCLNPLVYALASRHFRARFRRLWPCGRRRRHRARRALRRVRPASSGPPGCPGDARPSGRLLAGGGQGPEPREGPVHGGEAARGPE
The nature of assay [11]: cells. The assay is classed as functional, cell-based. To be noted: HEK-CNG.
Assay [12] is described as follows: viability loss in HEK293 cells – cell-based, plate reader, cherry-picked samples, cytotoxicity control, dose response (AID 743446). The assay is classed as functional.
Another assay deals with Beta Lactamase (Pseudomonas aeruginosa, UniProt Q932Y6). In words: BLA reporter interference, concentration series – BLA reporter cells, FRET fluorescence, artefact control for NOD2-RIPK2 interaction inhibitor project, dose response (AID 651552). The assay is classed as functional, cell-based.
Sequence of Beta Lactamase (Q932Y6 whole entry): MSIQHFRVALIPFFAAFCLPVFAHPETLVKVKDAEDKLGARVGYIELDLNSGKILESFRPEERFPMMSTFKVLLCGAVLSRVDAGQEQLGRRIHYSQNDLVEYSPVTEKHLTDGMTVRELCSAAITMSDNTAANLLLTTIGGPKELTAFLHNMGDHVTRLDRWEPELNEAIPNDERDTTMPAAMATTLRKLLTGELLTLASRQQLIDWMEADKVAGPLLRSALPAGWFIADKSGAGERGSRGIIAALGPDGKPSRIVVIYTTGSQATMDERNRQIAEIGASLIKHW
Assay [13] in a line: blockade of melanocortin 4 receptor signaling – cell-based, plate reader, cherry pick, counter-screen for LGR2 antagonist project, dose response (AID 743444).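 Further: transfected HEK 293 cells stimulated with alpha-MSH peptide; potency of inhibitors of the alpha-MSH evoked signal.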 The assay is classed as functional.
A short description of assay [14]: loss of viability in HepG2 cells – cell-based, CellTiter-Glo, cherry-picked, cytotoxicity control for Shn3 inhibitor project, dose response (AID 624134). The assay is classed as functional. (Cellular ATP, detected with luciferase, serves as a proxy for viable cell number.)
A short description of assay [15]: A549 cell cytotoxicity, dose response, cytotoxicity control, plate reader, cherry-pick, antagonist series (AID 743412). The assay is classed as functional, cell-based.
The target of the next assay is T2, Protein skinhead-1 (Caenorhabditis elegans, UniProt P34707).
T2 sequence (P34707 whole entry): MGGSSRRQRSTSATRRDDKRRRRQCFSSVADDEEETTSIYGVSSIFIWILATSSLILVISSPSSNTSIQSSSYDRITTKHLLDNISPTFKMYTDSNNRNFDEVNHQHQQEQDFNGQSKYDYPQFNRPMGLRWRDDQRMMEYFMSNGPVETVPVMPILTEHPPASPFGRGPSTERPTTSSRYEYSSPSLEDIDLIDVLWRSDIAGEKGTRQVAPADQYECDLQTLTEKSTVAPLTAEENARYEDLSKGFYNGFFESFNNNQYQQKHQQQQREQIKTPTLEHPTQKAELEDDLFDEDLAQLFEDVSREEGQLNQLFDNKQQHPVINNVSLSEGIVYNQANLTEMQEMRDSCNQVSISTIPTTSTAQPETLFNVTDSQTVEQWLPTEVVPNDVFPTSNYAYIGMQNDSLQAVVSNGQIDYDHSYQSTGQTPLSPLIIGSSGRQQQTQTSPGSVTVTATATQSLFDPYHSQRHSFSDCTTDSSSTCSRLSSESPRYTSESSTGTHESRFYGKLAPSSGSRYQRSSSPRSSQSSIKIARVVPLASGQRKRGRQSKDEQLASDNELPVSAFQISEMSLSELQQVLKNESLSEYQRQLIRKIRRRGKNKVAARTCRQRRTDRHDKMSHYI
The assay is classed as functional.

The nature of assay [16]: non-specific 3'UTR reporter inhibition in Clone20-Shn3RL – cell-based, Renilla luciferase, cherry-picked, counter-screen for Shn3 inhibitor project, dose response (AID 624133). The assay is classed as functional.
Assay [17] in a line: Fluorescence-based cell-based high throughput dose response assay for inhibitors of the interaction of nucleotide-binding oligomerization domain containing 2 (NOD2) and the receptor-interacting serine-threonine kinase 2 (RIPK2). To be noted: Homo sapiens. The assay is classed as functional.
Assay [18] is described as follows: toxicity toward HepG2 liver cells – cell-based, plate reader, cherry-pick, antagonist series, cytotoxicity control, dose response (AID 743416). The assay is classed as functional.
Assay [19] in a line: blockers of bursicon-stimulated LGR2 cAMP reporter – cell-based, HEK293, CRE-luciferase reporter, cherry pick, set 2, dose response (AID 743343).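 Further: transfected cells were stimulated with diluted bursicon conditioned medium after compound addition.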 The assay is classed as functional. Background: In a reporter assay the amount or activity of a reporter protein is the signal.
A short description of assay [20]: reduction of Shn3 3'UTR-driven luciferase in osteoblasts – cell-based, Clone20 osteoblasts, firefly luciferase, cherry-picked, dose response (AID 624132).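 Further: firefly luciferase luminescence from reporter carrying the Shn3 3'UTR in osteoblasts.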 The assay is classed as functional.
For assay [21], the system named is HEK293. Briefly: cells. The assay is classed as functional, cell-based. To be noted: Homo sapiens.
For assay [22], the system named is BJ. In words: BJ-TERT fibroblast viability loss – cell-based, RAS-independent, luminescence, dose response (AID 1933). The assay is classed as functional. As to conditions: Homo sapiens.
Assay [23] deals with BJ. In words: BJ-TERT-LT-ST fibroblast viability loss – cell-based, RAS-independent, luminescence, dose response (AID 1935).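 Further: BJ fibroblasts immortalized with TERT plus LT and ST oncogenes.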 The assay is classed as functional. As to conditions: Homo sapiens.
Assay [24] is described as follows: Luminescence Cell-Based Dose Confirmation HTS to Identify Inhibitors of Platelet Dense Granule Release. [Related pubchem assays: 1663 (Primary HTS), 1678 (Summary of Project)]. The assay is classed as functional.
Assay [25] is described as follows: inhibition of ADAM10 peptide cleavage – biochemical, FRET peptide substrate, recombinant human ADAM10, selectivity assay for ADAM17 exosite inhibitor project, dose response (AID 743259).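 Further: ADAM10 enzyme cleaving a FRET peptide substrate.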
In assay [26] the test system is HEK293. In words: inhibition of NOD1-driven NF-kB reporter – cell-based, luminescence, uHTS, primary screen (AID 1578). The assay is classed as functional. To be noted: Homo sapiens.
In assay [27] the test system is BJ. Briefly: cells. The assay is classed as functional, cell-based. To be noted: Homo sapiens.
Assay [28] relates to HEK293. In words: cells. The assay is classed as functional, cell-based. To be noted: Homo sapiens. This is another data set of the same source.
Assay [29] has as its target Disintegrin and metalloproteinase domain-containing protein 17 (Homo sapiens, UniProt P78536). Briefly: exosite inhibitors of ADAM17, dose response, biochemical (AID 743260).
Assay [30] can be described thus: DRD fibroblast viability loss – cell-based, non-viral oncogenic, luminescence, dose response (AID 1934). The assay is classed as functional. To be noted: Homo sapiens.
The subject of assay [31] is HEK293. Briefly: cells. The assay is classed as functional, cell-based. As to conditions: Homo sapiens. The source holds these as a separate data set.
Assay [32] deals with Nucleotide-binding oligomerization domain-containing protein 2 (Homo sapiens, UniProt Q9HC29). Briefly: inhibition of NOD2-driven NF-kB reporter – cell-based, luminescence, uHTS, HEK293 (AID 1566). The assay is classed as functional.
Sequence of Nucleotide-binding oligomerization domain-containing protein 2 (Q9HC29 whole entry, the tested form may be a part): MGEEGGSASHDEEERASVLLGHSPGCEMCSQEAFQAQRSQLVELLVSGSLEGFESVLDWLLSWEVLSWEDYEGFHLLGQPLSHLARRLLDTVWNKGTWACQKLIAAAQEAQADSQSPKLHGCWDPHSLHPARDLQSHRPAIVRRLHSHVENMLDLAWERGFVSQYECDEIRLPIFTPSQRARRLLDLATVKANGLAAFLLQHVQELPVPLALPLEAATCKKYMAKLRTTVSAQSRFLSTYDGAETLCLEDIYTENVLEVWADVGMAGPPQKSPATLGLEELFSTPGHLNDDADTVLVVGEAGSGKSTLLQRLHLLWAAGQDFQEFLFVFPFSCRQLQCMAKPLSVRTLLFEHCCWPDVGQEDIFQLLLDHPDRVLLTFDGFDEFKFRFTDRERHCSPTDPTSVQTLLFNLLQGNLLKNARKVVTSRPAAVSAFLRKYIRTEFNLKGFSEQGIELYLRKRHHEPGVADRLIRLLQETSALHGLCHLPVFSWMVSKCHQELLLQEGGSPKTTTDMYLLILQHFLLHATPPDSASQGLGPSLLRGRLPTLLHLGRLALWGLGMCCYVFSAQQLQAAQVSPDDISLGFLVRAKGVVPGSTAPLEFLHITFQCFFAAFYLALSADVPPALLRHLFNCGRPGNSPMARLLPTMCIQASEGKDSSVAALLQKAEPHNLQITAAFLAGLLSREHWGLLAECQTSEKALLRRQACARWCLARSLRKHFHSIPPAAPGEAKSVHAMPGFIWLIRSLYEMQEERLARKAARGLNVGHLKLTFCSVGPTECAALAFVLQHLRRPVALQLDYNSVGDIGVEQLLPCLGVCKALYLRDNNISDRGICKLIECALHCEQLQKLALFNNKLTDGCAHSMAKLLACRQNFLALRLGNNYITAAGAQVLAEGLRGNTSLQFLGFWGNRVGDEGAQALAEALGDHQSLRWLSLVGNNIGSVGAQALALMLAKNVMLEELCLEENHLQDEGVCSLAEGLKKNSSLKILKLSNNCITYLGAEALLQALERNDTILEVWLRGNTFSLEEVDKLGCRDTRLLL
In assay [33] the target is Luciferin 4-monooxygenase (Photinus pyralis, UniProt P08659). Briefly: inhibition of purified Photinus pyralis luciferase – biochemical, luminescence, dose response (AID 1891).
Sequence of Luciferin 4-monooxygenase (P08659 whole entry): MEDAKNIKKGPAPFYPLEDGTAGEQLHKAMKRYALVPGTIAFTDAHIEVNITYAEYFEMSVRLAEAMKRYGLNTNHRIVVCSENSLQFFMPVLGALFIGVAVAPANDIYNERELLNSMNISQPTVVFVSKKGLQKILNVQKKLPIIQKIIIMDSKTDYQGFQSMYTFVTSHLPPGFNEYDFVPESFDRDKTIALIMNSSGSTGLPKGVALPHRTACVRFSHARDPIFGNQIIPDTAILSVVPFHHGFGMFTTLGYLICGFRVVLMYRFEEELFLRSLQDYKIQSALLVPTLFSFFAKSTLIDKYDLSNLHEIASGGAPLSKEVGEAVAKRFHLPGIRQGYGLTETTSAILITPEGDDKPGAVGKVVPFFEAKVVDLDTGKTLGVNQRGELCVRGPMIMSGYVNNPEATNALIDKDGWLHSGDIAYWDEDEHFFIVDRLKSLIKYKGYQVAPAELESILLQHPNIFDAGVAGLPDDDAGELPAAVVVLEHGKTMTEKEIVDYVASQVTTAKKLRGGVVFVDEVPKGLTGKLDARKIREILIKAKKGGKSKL
The nature of assay [34]: Late stage assay provider results from the probe development effort to identify selective inhibitors of heat shock protein 90 (HSP90): Absorbance-based cell proliferation assay in MCF7 cells. The assay is classed as functional.
Assay [35] is described as follows: Late stage assay provider results from the probe development effort to identify selective inhibitors of heat shock protein 90 (HSP90): Absorbance-based cell proliferation assay in SKBR3 cells. The assay is classed as functional. As to conditions: SK-BR-3.
In another assay the target is Paired box protein Pax-8 (Homo sapiens, UniProt Q06710). Briefly: PAX8 transcriptional activity inhibition in RMG-I – RMG-I cells, luciferase, cherry-pick, dose response (AID 687027).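 Further: luciferase reporter driven by Pax8 target thyroperoxidase promoter measured by SteadyGlo luminescence.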 The assay is classed as functional, cell-based.
Sequence of Paired box protein Pax-8 (Q06710 whole entry): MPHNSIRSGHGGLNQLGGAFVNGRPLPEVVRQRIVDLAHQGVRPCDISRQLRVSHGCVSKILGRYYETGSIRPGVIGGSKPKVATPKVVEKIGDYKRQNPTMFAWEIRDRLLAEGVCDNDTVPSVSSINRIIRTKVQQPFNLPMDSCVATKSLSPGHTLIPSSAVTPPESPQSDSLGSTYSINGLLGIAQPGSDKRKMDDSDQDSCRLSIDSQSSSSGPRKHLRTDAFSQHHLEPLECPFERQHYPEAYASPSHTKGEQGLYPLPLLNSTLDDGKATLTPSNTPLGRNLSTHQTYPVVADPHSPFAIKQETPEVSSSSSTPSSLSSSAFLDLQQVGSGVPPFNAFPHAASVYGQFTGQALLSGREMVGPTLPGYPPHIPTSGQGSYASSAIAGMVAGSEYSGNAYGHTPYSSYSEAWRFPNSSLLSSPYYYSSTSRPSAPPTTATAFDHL
Assay [36] can be described thus: general cell-killing toxicity readout – plate reader, dry powder samples, cytotoxicity control for PAX8 inhibitor project, dose response (AID 743021). The assay is classed as functional, cell-based.

These results are taken from ChEMBL document CHEMBL1201862, “PubChem BioAssay data set” (2004).

Calls of active or inactive are those of the source.

What is called AC50 is the concentration at which the activity in the assay is half-maximal. What is called EC50 is the concentration needed to bring the measured effect to its halfway point. Usually IC50 stands for the point on the concentration scale where inhibition reaches its midpoint.

T1 sequence (Q79MP6 whole entry): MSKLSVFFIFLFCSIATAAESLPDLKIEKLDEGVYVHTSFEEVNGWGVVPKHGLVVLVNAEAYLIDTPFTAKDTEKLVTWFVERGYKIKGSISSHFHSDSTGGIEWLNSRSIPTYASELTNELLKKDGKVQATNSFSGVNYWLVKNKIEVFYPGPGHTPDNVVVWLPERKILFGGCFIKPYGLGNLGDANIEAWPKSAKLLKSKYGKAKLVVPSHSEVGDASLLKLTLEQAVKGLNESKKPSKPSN
Sequence of Disintegrin and metalloproteinase domain-containing protein 17 (P78536 whole entry, the tested form may be a part): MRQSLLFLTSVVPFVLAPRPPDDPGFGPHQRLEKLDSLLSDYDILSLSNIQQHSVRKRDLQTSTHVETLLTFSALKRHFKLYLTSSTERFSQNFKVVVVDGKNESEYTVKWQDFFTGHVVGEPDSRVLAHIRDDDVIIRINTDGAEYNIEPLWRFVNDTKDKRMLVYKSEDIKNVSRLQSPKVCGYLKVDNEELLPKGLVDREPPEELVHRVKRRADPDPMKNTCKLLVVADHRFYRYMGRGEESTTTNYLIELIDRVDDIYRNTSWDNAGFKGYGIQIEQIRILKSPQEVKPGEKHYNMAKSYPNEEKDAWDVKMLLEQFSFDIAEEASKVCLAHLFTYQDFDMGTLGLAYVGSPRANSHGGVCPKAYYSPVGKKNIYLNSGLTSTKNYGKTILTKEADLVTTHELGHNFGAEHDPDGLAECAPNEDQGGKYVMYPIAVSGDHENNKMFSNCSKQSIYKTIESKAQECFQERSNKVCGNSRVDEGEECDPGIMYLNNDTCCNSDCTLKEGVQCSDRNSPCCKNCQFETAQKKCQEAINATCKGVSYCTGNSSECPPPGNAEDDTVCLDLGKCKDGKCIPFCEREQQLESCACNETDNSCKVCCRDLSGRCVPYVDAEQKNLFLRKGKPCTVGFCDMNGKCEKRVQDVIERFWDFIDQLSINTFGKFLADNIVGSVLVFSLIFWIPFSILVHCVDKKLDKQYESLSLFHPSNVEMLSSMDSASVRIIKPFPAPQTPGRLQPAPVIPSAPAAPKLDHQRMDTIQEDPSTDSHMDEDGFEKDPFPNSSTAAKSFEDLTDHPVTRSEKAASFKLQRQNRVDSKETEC

With `Nc1c(C(=O)NCc2ccccc2)c2nc3ccccc3nc2n1CCCN1CCOCC1`, the AC50 was 17.1 µM (active) in [1], 32.1 µM (active) in “cells [2]”, 15.6 µM (active) in “cells [3]” and 25.2 µM (active) in the assay “cells [4]”.
Take `COc1ccc(C2CC(c3ccc4ccccc4c3OC(C)=O)=NN2C(C)=O)cc1` (configuration not stated): the results for the 50% effective concentration (EC50) (in [5]; with H4; in assay [7]) were 0.512 µM (active), 0.456 µM (active) and 3.82 µM (active), respectively. In addition, the figures for the AC50 (in assay [6]; with INS1) were 26 µM (active) and 3.3 µM (active), respectively.
On to `O=Cc1c(O)nc2ccccc2c1NCc1ccc(Cl)cc1`, for which the IC50 on Beta-lactamase [8], on Beta-lactamase [9] and at Beta-lactamase [10] was > 59.6 µM (inactive) in each case.
Consider `CCNCC(O)c1cccc(O)c1` (configuration not stated) [ETILEFRINE], for which the IC50 at Galanin receptor type 3 was 1.33 µM (active). For the same compound, the EC50 in the assay “cells [11]” was > 30 µM (inactive).
On to `O=C1NC2C(=CC(O)C(O)C2O)c2cc3c(c(O)c21)OCO3` (configuration not stated), for which the AC50 in assay [12] is 0.167 µM (active); in [13], 0.161 µM (active); in [14] it was 59 µM (active); in assay [15] it was 0.17 µM (active); in [16], 0.431 µM (active); in assay [18] it was 0.218 µM (active). Besides, the AC50 is 0.138 µM (active) in [19] and < 0.26 µM (active) in [20]. Further, the IC50 is 49.7 µM (inactive) on Beta Lactamase, 24 µM (active) on Protein skinhead-1 and 49.7 µM (inactive) in assay [17].
Consider `Cc1ccccc1S(=O)(=O)Cc1ccc(C(=O)N2CCN(c3cccc(C)c3C)CC2)o1`, for which the half-inhibitory concentration (IC50) in the assay with HEK293 [21] was 10.5 µM (active); in assay [25], 11.7 µM (inactive); with HEK293 [28], > 20 µM (inactive); in [29] it was > 69.6 µM (inactive); in the assay with HEK293 [31] it was 3.96 µM (active). In addition, the half-maximal effective concentration (EC50) in the assay on BJ [22] is 11.1 µM (active); with BJ [23] it was 4.92 µM (active); in [24] it was > 112 µM (not active); with HEK293 [26] it was 5.29 µM (active); in the assay on BJ [27], 10 µM (inconclusive); in assay [30] it was 4.95 µM (active). For the same compound, the 50% effective concentration (EC50) is 10.8 µM (active) in assay [32] and 28.5 µM (active) in assay [33].
`O=C(Nc1ccccc1I)c1coc(=O)c(Br)c1`: the IC50 is 29.4 µM (inactive) in assay [34] and 45.3 µM (inactive) in assay [35].
Turning to `COC(=O)C1C=CC(OC2OC(COC(C)=O)C(OC(C)=O)C(OC(C)=O)C2OC(C)=O)n2c(=O)n(-c3ccccc3)c(=O)n21` (configuration not stated), the AC50 at Paired box protein Pax-8 was 3.41 µM (active); in [36], 40 µM (active).
